Measurements as given in patent EP0166353B1, “Benzofused lactams useful as antihypertensive agents and as cholecystokinin antagonists” (Merck & Co., Inc., priority 1984, dated 1986).

Target: CCK receptor
Assay: 125I-CCK-33 receptor binding assay
Conditions: tissue not stated (methods given for rat pancreas and guinea pig brain cortex membranes); read-out: IC₅₀, inhibition of specific ¹²⁵I-CCK-33 binding
Procedure: CCK-33 was radiolabeled with ¹²⁵I-Bolton Hunter reagent (2000 Ci/mmole) as described by Sankara et al. (J. Biol. Chem. 254: 9349-9351, 1979). Receptor binding was performed according to Innis and Snyder (Proc. Natl. Acad. Sci. 77: 6917-6921, 1980) with the minor modification of adding the additional protease inhibitors, phenylmethane sulfonyl fluoride and o-phenanthroline. The latter two compounds have no effect on the ¹²⁵I-CCK receptor binding assay.
Male Sprague-Dawley rats (200-350g) were sacrificed by decapitation. The whole pancreas was dissected free of fat tissue and was homogenized in 20 volumes of ice-cold 50 mM, Tris HCl (pH 7.7 at 25°C) with a Brinkmann Polytron PT 10. The homogenates were centrifuged at 48,000 g for 10 min. […] The supernatant was aspirated and discarded, pellets were counted with a Beckman gamma 5000. […]
Male Hartley guinea pigs (300-500g) were sacrificed by decapitation and the brains were removed and placed in ice-cold 50 mM, Tris HCl plus 7.58 g/L Trizma-7.4 (pH 7.4 at 25°C) Cerebral cortex was dissected and used as a receptor source. […] The supernatant was aspirated and discarded, pellets were counted with a Beckman gamma 5000.

Work on `CCOC(=O)C(CCc1ccccc1)NC1CCc2ccccc2N(CC(=O)COC(C)=O)C1=O` (stereo not shown) [1-(3-Acetoxy-2-oxopropyl)-3-(1-carboethoxy-3-phenyl-1-propyl)amino homodihydrocarbostyril] yielded an IC50 of 25 µM.
